Patent US6146859A, “Facile synthesis of L-homophenylalanine by equilibrium shift enzymatic reaction using engineered tyrosine aminotransferase” (Academia Sinica, priority 1999, dated 2000)
“And” between values parts separate entries of the source, which are not always exact repeats. Identical values can stand only once.

Experiments:
[1] = target: T1, genetically engineered tyrosine aminotransferase (Escherichia coli, UniProt P04693); assay: Tyrosine aminotransferase-catalyzed amino transfer to 2-oxo-4-phenylbutyric acid with various amino acids as amino donors; format: biochemical, E. coli; parameters: initial rate: unit not given here; details: amino acid 0.20 mmol, 2-oxo-4-phenylbutyric acid 0.10 mmol, enzyme 1 unit, 5 mL Tris-HCl 20 mM pH 8.5, 37° C., 5 min; for initial rate: increase of homophenylalanine by HPLC
T1 construct: made in house; host or cells: E. coli
T1 sequence (P04693 whole entry, change not shown): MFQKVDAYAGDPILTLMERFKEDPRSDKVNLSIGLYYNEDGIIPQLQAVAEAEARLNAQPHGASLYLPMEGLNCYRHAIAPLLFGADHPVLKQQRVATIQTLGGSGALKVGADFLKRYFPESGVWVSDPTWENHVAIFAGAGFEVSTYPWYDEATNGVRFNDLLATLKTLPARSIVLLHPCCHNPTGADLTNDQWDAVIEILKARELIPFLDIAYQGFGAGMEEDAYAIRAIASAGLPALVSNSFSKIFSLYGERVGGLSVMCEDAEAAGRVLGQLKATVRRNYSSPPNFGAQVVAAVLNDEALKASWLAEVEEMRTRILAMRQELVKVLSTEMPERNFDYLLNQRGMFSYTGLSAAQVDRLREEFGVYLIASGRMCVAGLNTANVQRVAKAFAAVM
Text: Production of tyrosine aminotransferase: Genetically engineered tyrosine aminotransferase is preferably produced by overexpressing the gene product in E. coli according to the method described by Kuramitsu et al. in Biochem, Biophys. Res. Commu., 1989, 133:134, the contents of which are herein incorporated by references in their entirety. One unit of enzyme activity was defined as the activity that produces 1 μmol of product per minute.
The enzymatic activities of the genetically engineered tyrosine aminotransferase as described above were tested using various amino acids as amino donors and the results are shown in Table I. Each enzyme-catalyzed reaction was carried out in a mixture (5 mL) of Tris-HCl buffer (20 mM, pH 8.5) containing the tested amino acid (0.20 mmol) and 2-oxo-4-phenylbutyric acid (0.10 mmol) and the enzyme (1 unit) at 37° C. for 5 min. The initial rate was measured by calculating the increase of homophenylalanine concentration in each reaction based on HPLC analysis.

[2] = target: T2, tyrosine aminotransferase (Escherichia coli, UniProt P04693); assay: Equilibrium constants of the tyrosine aminotransferase-catalyzed reaction with 2-oxo-4-phenylbutyric acid and various amino acids; format: biochemical, E. coli; details: 2-oxo-4-phenylbutyric acid and the amino acid as substrates
T2 construct: made in house; host or cells: E. coli
T2 sequence (P04693 whole entry): as the sequence (P04693 whole entry, change not shown) above
Protocol: (§1) The HPLC chromatography is preferably conducted under the following conditions: column, 5C18; flow rate, 1 ml/min; gradient elution from an initial solution of 10% of eluent B+90% of eluent A to a final solution of 100% of eluent B in 20 minutes, wherein eluent A contains 5% ACN in 0.1% TFA and eluent B contains 95% ACN in 0.1% TFA; detector UV 214 nm. Initially, only peaks representing the starting materials L-glutamic acid having a retention time of 2.70 min and compound 1 having a retention time of 7.49 min appear in the HPLC graph as shown in the lower panel of FIG. 3. After adding the tyrosine aminotransferase, the areas of peaks corresponding to compound 1 and glutamic acid are decreased gradually, whereas areas of peaks corresponding to compound 2 having a retention time of 5.24 min and α-ketoglutamic acid having a retention time of 3.49 min are increased, as shown in the upper panel of FIG. 3. When the area of the peak representing compound 1 is reduced to one-fifth of the initial peak area, white precipitates appear in the reaction solution, while the peak area of compound 2 becomes stable and stays constant until the peak areas of compound 1 and glutamic acid are reduced to about baseline.

[3] = tested on: microbial aminotransferase; details: at more than 0.2M; cited from earlier work
[4] = format: physicochemical; details: pH 8.5
Protocol: Synthesis of L-homophenylalanine: The synthesis is conducted preferably in a reaction mixture (5 ml) containing Tris-HCl buffer (50 mM, pH 8.5), compound 1 (10 mmole, the final concentration of compound 1 is about 2 M), L-Glu (10 mM), pyridoxal 5-phosphate (20 mM) at 37° C. The reaction is initiated by adding the tyrosine aminotransferase (5 units) to the reaction solution and monitored by HPLC.
as §1, with “When the area of the peak representing compound 1 is reduced to one-fifth of the initial peak area, white precipitates appear in the reaction solution, while the peak area of compound 2 becomes stable and stays constant until the peak areas of compound 1 and glutamic acid are reduced to about baseline.” left out

SMILES	turnover rate [1]	initial rate [1]	Equilibrium Constant (Keq) [2]	inhibition of aminotransferase activity and conversion yield [3]	solubility in the reaction solution [4]
CC[C@H](C)[C@H](N)C(=O)O [L-Ile, isoleucine]	0.005 mM/min.unit	0.03			
C[C@H](N)C(=O)O [L-Ala, alanine]	0.042 mM/min.unit	0.23			
NCC(=O)O [L-Gly, glycine]	0.027 mM/min.unit	0.15			
N[C@@H](Cc1ccccc1)C(=O)O [L-Phe, phenylalanine]	0.605 mM/min.unit and 0.61 mM/min.unit	3.32	0.466		
CC(C)C[C@H](N)C(=O)O [L-Leu, leucine]	0.106 mM/min.unit	0.58			
O=C(O)C(=O)CCc1ccccc1 [2-oxo-4-phenylbutyric acid]				markedly inhibited	
N[C@@H](CC(=O)O)C(=O)O [L-Asp, aspartic acid]	0.372 mM/min.unit	2.04	0.187		
N[C@@H](CO)C(=O)O [L-Ser, serine]	0.002 mM/min.unit	0.01			
N[C@@H](Cc1c[nH]cn1)C(=O)O [L-His, histidine]	0.089 mM/min.unit	0.49			
C[C@@H](O)[C@H](N)C(=O)O [L-Thr, threonine]	0.009 mM/min.unit	0.05			
N[C@@H](CCC(=O)O)C(=O)O [L-Glu, glutamic acid]	0.539 mM/min.unit and 0.54 mM/min.unit	2.96	0.345		
N[C@@H](Cc1ccc(O)cc1)C(=O)O [L-Tyr, tyrosine]	0.619 mM/min.unit and 0.62 mM/min.unit	3.43	0.727		
CC(C)[C@H](N)C(=O)O [L-Val, valine]	0.058 mM/min.unit	0.32			
CSCC[C@H](N)C(=O)O [L-Met, methionine]	0.268 mM/min.unit	1.47			
N[C@@H](CCc1ccccc1)C(=O)O [compound 2, L-homophenylalanine]					practically insoluble
NCCCC[C@H](N)C(=O)O [L-Lys, lysine]	0.046 mM/min.unit	0.25			
